Experimental data as given in patent US5773414A, “Endothelin antagonists” (Warner-Lambert Company, priority 1997, dated 1998).
Where a name gives a salt, the structure may show the parent alone. Read-outs that look alike come from different tables or passages of the source. Square brackets hold non-standard residues; d marks the D form. Peptide text beside a SMILES is read from it. dDip = N[C@@H](C(=O)O)C(c1ccccc1)c1ccccc1; d2Nal = N[C@H](Cc1ccc2ccccc2c1)C(=O)O; Orn = NCCC[C@H](N)C(=O)O

Assays:
ETA = biological target: T1, ETA (Oryctolagus cuniculus, UniProt A5A8K3); assay: Endothelin Receptor Binding Assay-A (ETA), intact cell binding of [125I]-ET-1; design: species or system rabbit; details: Table IIa; rabbit renal artery vascular smooth muscle cells; read-out: Binding Assay IC50 at Receptor Subtypes ETA
T1 construct: The cells used were rabbit renal artery vascular smooth muscle cells; endogenous in cells; host or cells: rabbit renal artery vascular smooth muscle cells
T1 sequence (A5A8K3 21-427): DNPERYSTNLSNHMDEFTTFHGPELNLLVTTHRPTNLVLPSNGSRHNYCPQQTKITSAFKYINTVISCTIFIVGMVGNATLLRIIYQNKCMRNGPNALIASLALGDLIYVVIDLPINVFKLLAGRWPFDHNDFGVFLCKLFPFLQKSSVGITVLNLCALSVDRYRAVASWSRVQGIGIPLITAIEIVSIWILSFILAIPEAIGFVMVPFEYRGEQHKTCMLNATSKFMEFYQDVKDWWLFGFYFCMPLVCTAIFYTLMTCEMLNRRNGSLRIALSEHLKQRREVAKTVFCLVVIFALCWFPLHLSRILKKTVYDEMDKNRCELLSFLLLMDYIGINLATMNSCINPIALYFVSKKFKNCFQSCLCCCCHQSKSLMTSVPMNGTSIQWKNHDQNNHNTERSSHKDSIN
Method: The cells used were rabbit renal artery vascular smooth muscle cells grown in a 48-well dish (1 cm^2) (confluent cells).
The growth media was Dulbeccos Modified Eagles/Ham's F12 which contained 10 fetal bovine serum and antibiotics (penicillin/streptomycin/fungizone).
Second, remove the assay buffers, place the dish on ice, and add 150 μL of cold assay buffer described above to each well. […] Next, place dish in a 37° C. water bath for about 2 hours and gently agitate the dish every 15 minutes. Discard the radioactive incubation mixture in the sink and wash wells 3 times with 1 mL of cold phosphate buffered saline. Last, add […] of 0.25M sodium hydroxide, agitate for 1 hour on rotator, and then transfer the sodium hydroxide extract to gamma counting tubes and count the radioactivity.

[1] = biological target: T2, endothelin receptor (rat heart ventricle) (Rattus norvegicus, UniProt P26684); assay: Rat Heart Ventricle Binding Assay ([125I]-ET-1); details: Table II
T2 sequence (P26684 21-426): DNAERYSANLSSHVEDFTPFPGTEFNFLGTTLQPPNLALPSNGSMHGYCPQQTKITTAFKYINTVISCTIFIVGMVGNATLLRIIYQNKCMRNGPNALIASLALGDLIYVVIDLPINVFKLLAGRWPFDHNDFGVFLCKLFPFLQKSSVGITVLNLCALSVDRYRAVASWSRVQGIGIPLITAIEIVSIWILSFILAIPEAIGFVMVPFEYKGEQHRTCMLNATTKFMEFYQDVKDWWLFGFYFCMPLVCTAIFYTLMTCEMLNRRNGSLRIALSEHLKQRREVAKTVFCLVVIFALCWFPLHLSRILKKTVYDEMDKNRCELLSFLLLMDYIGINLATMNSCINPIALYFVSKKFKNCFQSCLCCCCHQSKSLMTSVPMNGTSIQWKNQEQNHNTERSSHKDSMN
Method: Rat Heart Ventricle Binding Assay
IC50 values are calculated by weighing nonlinear regression curve-fitting to the mass-action (Langmuir) equation.

ETB = biological target: T3, ETB (Rattus norvegicus, UniProt P21451); assay: Endothelin Receptor Binding Assay-B (ETB), [125I]-ET-1 binding in rat cerebellar membranes; details: Table IIa; rat cerebellar membranes; read-out: Binding Assay IC50 at Receptor Subtypes ETB
T3 construct: thaw one aliquot of frozen rat cerebellar membranes; from tissue; host or cells: rat cerebellar membranes
T3 sequence (P21451 27-442): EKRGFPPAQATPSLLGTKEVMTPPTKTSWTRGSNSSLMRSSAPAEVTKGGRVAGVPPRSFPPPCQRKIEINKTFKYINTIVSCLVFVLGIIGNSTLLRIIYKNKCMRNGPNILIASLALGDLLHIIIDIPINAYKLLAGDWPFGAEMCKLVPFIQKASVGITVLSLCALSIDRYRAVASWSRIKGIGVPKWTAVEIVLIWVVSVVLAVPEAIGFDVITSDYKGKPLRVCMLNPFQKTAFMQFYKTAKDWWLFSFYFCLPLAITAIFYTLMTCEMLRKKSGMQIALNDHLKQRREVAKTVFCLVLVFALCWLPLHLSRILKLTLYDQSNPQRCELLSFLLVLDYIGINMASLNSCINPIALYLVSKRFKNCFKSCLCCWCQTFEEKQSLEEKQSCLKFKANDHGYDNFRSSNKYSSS
Method: The tissue is made up of 20 mM tris(hydroxymethyl)aminomethane hydrochloride (Trizma) buffer, 2 mM ethylenediaminetetraacetate, 100 μM phenylmethylsulfonyl fluoride.
First, thaw one aliquot of frozen rat cerebellar membranes (2 mg protein in 0.5 mL). Next, add 0.5 mL membrane aliquot to 4.5 mL cold tissue buffer, polytron at 7,500 revolutions per minute for 10 seconds. Finally, dilute tissue suspension 1/100 (0.1 mL suspension+9.9 mL tissue buffer), polytron again, and place ice.
Mix in 150 μL of tissue to each tube, vortex briefly, then tap to force all liquids to bottom (total assay volume=250 μL). Then place the tubes in a 37° C. water bath for 2 hours.
Add 2.5 mL cold water buffer (50 mM Trizma buffer) to each tube, filter, and then wash tube with additional 2.5 mL wash buffer and add to filter. Finally, wash filters with an additional 2.5 mL of cold wash buffer.
Count filters for radioactivity in gamma counter.

[2] = biological target: T4, endothelin-stimulated inositol phosphate accumulation in Rat-1 cells (Rattus norvegicus, UniProt P26684); assay: Inositol Phosphate Accumulation; format: cell-based
T4 sequence (P26684 21-426): T2 sequence (P26684 21-426)
Method: Inositol Phosphate Accumulation
The functional activity of compounds of Formula I is determined in Rat-1 cells by measuring intra-cellular levels of second messengers. […] Antagonist activity is assessed as the ability of added compounds to reduce endothelin-stimulated inositol phosphate accumulation.

[3] = tested on: ET-1 induced bronchoconstriction and tracheal smooth muscle contraction; details: allergic sheep; cited from earlier work
endotoxic shock = details: mouse model of endotoxic shock; cited from earlier work
[4] = tested on: pulmonary artery rings contracted by SRTX-6c; assay: In vitro isolated vessel study, pulmonary artery rings, agonist SRTX-6c; design: species or system rabbit; details: Table III, endothelium-denuded rings
Method: In Vitro (Isolated Vessel) Studies
Male New Zealand rabbits were killed by cervical dislocation and exsanguination. Femoral and pulmonary arteries were isolated, cleaned of connective tissue, and cut into 4 mm rings. The endothelium was denuded by placing the rings over hypodermic tubing (32 gauge for femoral rings and 28 gauge for pulmonary rings, Small Parts Inc., Miami, Fla.) and gently rolling them. Denuded rings were mounted in 20 mL organ baths containing Krebs-bicarbonate buffer (composition in mM: NaCl, 118.2; NaHCO3, 24.8; KCl, 4.6; MgSO4, 7.H2 O, 1.2; KH2 PO4, 1.2; CaCl2. 2H2 O; Ca--Na2 EDTA, 0.026; Dextrose, 10.0), that was maintained at 37° C., and gassed continuously with 5% CO2 in oxygen (pH 7.4). Resting tension was adjusted to 3.0 g for femoral and 4.0 g pulmonary arteries; the rings were left for 90 minutes to equilibrate. Tension was monitored with force displacement transducers (Grass FT03, Quincy, Mass.) and recorded on a polygraph (Gould 2108, Cleveland, Ohio) recorder.
Vascular rings were tested for a lack of functional endothelium, i.e., lack of an endothelium-dependent relaxation response to carbachol (1.0 μM) in norepinephrine (0.03 μM) contracted rings. […]
For the in vitro experiments compounds were dissolved in 0.1% acetic acid in distilled water. […] The antagonist activity of various compounds are expressed as PA2 values in Table III.

Compound | IC50 (ETA) [nM] | inhibition at 10 µM [1] [%] | IC50 (ETB) [nM] | further results
CC[C@H](C)[C@H](NC(=O)[C@H](CC(=O)O)NC(=O)[C@H](CC(C)C)NC(=O)[C@H](NC(C)=O)C(c1ccccc1)c1ccccc1)C(=O)N[C@@H](CCCCN)C(=O)N[C@@H](Cc1c[nH]c2ccccc12)C(=O)O [Example 17, Ac--D--Dip--Leu--Asp--Ile--Lys--Trp] (Ac-[dDip]LDIKW-OH) | > 10000 | 24.6 | 4200 | 
CC[C@H](C)[C@H](NC(=O)[C@H](CC(=O)O)NC(=O)[C@H](CC(C)C)NC(=O)[C@H](N)Cc1ccc2ccccc2c1)C(=O)N[C@H](C(=O)N[C@@H](Cc1c[nH]c2ccccc12)C(=O)O)[C@@H](C)CC [Example 4, D-2-Nal--Leu--Asp--Ile--Ile--Trp] (H-[d2Nal]LDIIW-OH; N-terminus and C-terminus assumed) |  |  |  | inhibition at 50 µM ([2]; Table II, read-out: IP (Inositol Phosphate) Accumulation, Inhibition): 53%; inhibition at 50 µM ([2]; Table IIa, read-out: IP (Inositol Phosphate) Accumulation, % Inhibition): 53%
CC[C@H](C)[C@H](NC(=O)[C@H](CC(=O)O)NC(=O)[C@@H](CC(C)C)NC(=O)[C@H](NC(C)=O)C(c1ccccc1)c1ccccc1)C(=O)N[C@H](C(=O)N[C@@H](Cc1c[nH]c2ccccc12)C(=O)O)[C@@H](C)CC [Example 23, Ac--D--Dip--D--Leu--Asp--Ile--Ile--Trp] (Ac-[dDip][dL]DIIW-OH) |  | 41.3 |  | 
CC[C@H](C)[C@H](NC(=O)[C@H](CC(=O)O)NC(=O)[C@H](CC(C)C)NC(=O)[C@H](NC(C)=O)C(c1ccccc1)c1ccccc1)C(=O)N[C@@H](CCC(=O)O)C(=O)N[C@@H](Cc1c[nH]c2ccccc12)C(=O)O [Example 18, Ac--D--Dip--Leu--Asp--Ile--Glu--Trp] (Ac-[dDip]LDIEW-OH) |  | 37 |  | 
CC(C)C[C@@H]1NC(=O)[C@@H](C(C)C)NC(=O)[C@@H]2CCCN2C(=O)[C@@H](CC(=O)O)NC(=O)[C@@H](Cc2c[nH]c3ccccc23)NC1=O [BQ-123] (cyclo(L[dW][dD]P[dV])) |  |  |  | effect on ET-1 induced bronchoconstriction and tracheal smooth muscle contraction [3]: block ET-1 induced bronchoconstriction and tracheal smooth muscle contraction; survival rate (endotoxic shock): significantly increased
CC[C@H](C)[C@H](NC(=O)[C@H](CC(=O)O)NC(=O)[C@H](CC(C)C)NC(=O)[C@H](NC(C)=O)C(c1ccccc1)c1ccccc1)C(=O)N[C@H](C(=O)N[C@@H](Cc1c[nH]c2ccccc12)C(=O)O)[C@@H](C)CC [Disodium salt of Ac-D-Dip-Leu-Asp-Ile-Ile-Trp] (Ac-[dDip]LDIIW-OH) |  |  |  | pA2, rabbit pulmonary artery [4]: 6.26
CC[C@H](C)[C@H](NC(=O)[C@H](CC(=O)O)NC(=O)[C@H](CCC(=O)O)NC(=O)[C@H](NC(C)=O)C(c1ccccc1)c1ccccc1)C(=O)N[C@H](C(=O)N[C@@H](Cc1c[nH]c2ccccc12)C(=O)O)[C@@H](C)CC [Example 20, Ac--D--Dip--Glu--Asp--Ile--Ile--Trp] (Ac-[dDip]EDIIW-OH) | 25 |  | 52 | pA2, rabbit pulmonary artery [4]: 6.85
CC[C@H](C)[C@H](NC(=O)[C@H](CC(=O)O)NC(=O)[C@H](CCCN)NC(=O)[C@H](NC(C)=O)C(c1ccccc1)c1ccccc1)C(=O)N[C@H](C(=O)N[C@@H](Cc1c[nH]c2ccccc12)C(=O)O)[C@@H](C)CC [Example 21, Ac--D--Dip--Orn--Asp--Ile--Ile--Trp] (Ac-[dDip][Orn]DIIW-OH) | 15 |  | 220 | inhibition at 0.05 µM ([1]; @ 0.05 μM): 79%
CC[C@H](C)[C@H](NC(=O)[C@H](CC(=O)O)NC(=O)[C@@H](Cc1ccccc1)NC(C)=O)C(=O)N[C@H](C(=O)N[C@@H](Cc1c[nH]c2ccccc12)C(=O)O)[C@@H](C)CC [Example 11, Ac--D--Phe--Asp--Ile--Ile--Trp] (Ac-[dF]DIIW-OH) | 9100 |  | 9300 | inhibition at 10 µM ([2]; Table IIa, @ 10 μM, read-out: IP (Inositol Phosphate) Accumulation, % Inhibition): 30%
